Laboratory results from US5770613A, “Telomerase inhibitors” (Geron Corporation, priority 1995, dated 1998).
“Also recorded” adds a separate entry of the source.

Columns and labels:
telomerase [1] = molecular target: T1, telomerase (Homo sapiens, UniProt O14746); assay: Inhibition of telomerase activity (IC50); type: biochemical; conditions: approximate values (Table 2)
T1 construct: preferably a cellular extract or other preparation containing telomerase; endogenous in cells

[2] = tested on: Single-Stranded DNA Binding Protein (SSB); assay: Specificity screen versus telomerase; type: biochemical; conditions: from IC50 screening
Excerpt: (§1) Compound V was screened for activity (IC50) against telomerase and several enzymes having nucleic acid binding or modifying activities related to telomerase using standard techniques. The enzymes screened included Telomerase, Topoisomerase II, Terminal Transferase and Single-Stranded DNA Binding Protein (SSB).

Terminal Transferase = assay: Specificity screen versus telomerase; type: biochemical; conditions: from IC50 screening
Excerpt: as §1

Topoisomerase II [3] = assay: Specificity screen versus telomerase; type: biochemical; conditions: from IC50 screening
Excerpt: as §1

IMR-90 cells = assay: Long-term exposure of cell colonies, induction of senescence; type: cell-based; conditions: 5 μM, added every second day; versus DMSO control
Method: (§2) Colonies of the ovarian tumor cell lines OVCAR-5, SK-OV-3 and IMR-90 cells were prepared using standard methods and materials. In one test, the colonies were prepared by seeding 15-centimeter dishes with about 10^6 cells in each dish. The dishes were incubated to allow the cell colonies to grow to about 80% confluence, at which time each of the colonies was divided into two groups. One group was exposed to a subacute dose of Compound V (5 μM) 4-8 hours after plating following the split; the other group was exposed to a DMSO control.
(§3) Each group was then allowed to continue to divide, and the groups were split evenly again (near confluence). The same number of cells were seeded for continued growth. The compound or control was added every second day to the samples at the same concentration delivered initially (5 μM). […] No effect was seen on SK-OV-3 cells.

Topoisomerase II [4] = assay: Enzyme-mediated DNA cleavage assay (Topoisomerase II targeting / cleavable complex formation); type: biochemical
Method: Compound V was tested for its ability to target Topoisomerase II in a standard enzyme-mediated DNA cleavage assay. The well known anti-tumor agent VP-16 was used as a positive control. […] The amount of linear DNA was proportional to the concentration of Compound V used in the experiment.

SK-OV-3 cells = assay: Long-term exposure of cell colonies, effect on growth; type: cell-based; conditions: 5 μM, added every second day; versus DMSO control
Method: as §2, §3

OVCAR-5 cells = assay: as above; type: cell-based; conditions: 5 μM, added every second day; versus DMSO control
Method: as §2, §3

OVCAR-5 tumor cells = assay: Human tumor xenograft model in nude mice, tumor mass; type: in vivo
Method: In vivo testing was also performed using a mouse xenograft model in which OVCAR-5 tumor cells were grafted onto nude mice. […] In contrast, mice treated with a control (DMSO) are expected to have tumor masses that continue to increase.
A human tumor xenograft model in which OVCAR-5 tumor cells were grafted into nude mice was constructed using standard techniques and materials. The mice were divided into two groups. One group was treated intraperitoneally with Compound V. The other group was treated with a control comprising DMSO and phosphate buffer solution (PBS). The average tumor mass for mice in each group was determined periodically following the xenograft using standard methods and materials.

telomerase [5] = molecular target: T1, telomerase; assay: specificity in IMR-90, OVCAR-5 and SK-OV-3 cell samples (Topoisomerase II, Single-Strand Binding Protein, Terminal Transferase); type: cell-based; conditions: cell samples dosed at one quarter of the IC50 for telomerase, versus Topoisomerase II
Method: In on experiment, Compound V was administered to IMR-90, OVCAR-5, and SK-OV-3 cell samples at a concentration one quarter that of its IC50 for telomerase. The effects of Compound V on the activity of Topoisomerase II, Single-Strand Binding Protein, and Terminal Transferase were then determined using standard methodologies.

OVCAR-5 = assay: XTT assay for cytotoxicity; type: cell-based; conditions: Homo sapiens, 72 hours, 3 μM to 1,000 μM, read-out: LD50 (the source's name)
Method: (§4) The XTT assay for cytotoxicity was performed using the ovarian tumor cells lines IMR-90, OVCAR-5 and SK-OV-3. Cells from the normal human cell line BJ were used as a control. The cell lines used in the assay were exposed to Compound V of the invention for 72 hours at concentrations ranging from 3 μM to 1,000 μM. During this period, the optical density (OD) of the samples was determined for light at 540 nanometers (nm).

IMR-90 = assay: XTT assay for cytotoxicity; type: cell-based; conditions: Homo sapiens, 72 hours, 3 μM to 1,000 μM, read-out: LD50 (the source's name)
Method: as §4

SK-OV-3 = assay: XTT assay for cytotoxicity; type: cell-based; conditions: Homo sapiens, 72 hours, 3 μM to 1,000 μM, read-out: LD50 (the source's name)
Method: as §4

T1 sequence (O14746 whole entry): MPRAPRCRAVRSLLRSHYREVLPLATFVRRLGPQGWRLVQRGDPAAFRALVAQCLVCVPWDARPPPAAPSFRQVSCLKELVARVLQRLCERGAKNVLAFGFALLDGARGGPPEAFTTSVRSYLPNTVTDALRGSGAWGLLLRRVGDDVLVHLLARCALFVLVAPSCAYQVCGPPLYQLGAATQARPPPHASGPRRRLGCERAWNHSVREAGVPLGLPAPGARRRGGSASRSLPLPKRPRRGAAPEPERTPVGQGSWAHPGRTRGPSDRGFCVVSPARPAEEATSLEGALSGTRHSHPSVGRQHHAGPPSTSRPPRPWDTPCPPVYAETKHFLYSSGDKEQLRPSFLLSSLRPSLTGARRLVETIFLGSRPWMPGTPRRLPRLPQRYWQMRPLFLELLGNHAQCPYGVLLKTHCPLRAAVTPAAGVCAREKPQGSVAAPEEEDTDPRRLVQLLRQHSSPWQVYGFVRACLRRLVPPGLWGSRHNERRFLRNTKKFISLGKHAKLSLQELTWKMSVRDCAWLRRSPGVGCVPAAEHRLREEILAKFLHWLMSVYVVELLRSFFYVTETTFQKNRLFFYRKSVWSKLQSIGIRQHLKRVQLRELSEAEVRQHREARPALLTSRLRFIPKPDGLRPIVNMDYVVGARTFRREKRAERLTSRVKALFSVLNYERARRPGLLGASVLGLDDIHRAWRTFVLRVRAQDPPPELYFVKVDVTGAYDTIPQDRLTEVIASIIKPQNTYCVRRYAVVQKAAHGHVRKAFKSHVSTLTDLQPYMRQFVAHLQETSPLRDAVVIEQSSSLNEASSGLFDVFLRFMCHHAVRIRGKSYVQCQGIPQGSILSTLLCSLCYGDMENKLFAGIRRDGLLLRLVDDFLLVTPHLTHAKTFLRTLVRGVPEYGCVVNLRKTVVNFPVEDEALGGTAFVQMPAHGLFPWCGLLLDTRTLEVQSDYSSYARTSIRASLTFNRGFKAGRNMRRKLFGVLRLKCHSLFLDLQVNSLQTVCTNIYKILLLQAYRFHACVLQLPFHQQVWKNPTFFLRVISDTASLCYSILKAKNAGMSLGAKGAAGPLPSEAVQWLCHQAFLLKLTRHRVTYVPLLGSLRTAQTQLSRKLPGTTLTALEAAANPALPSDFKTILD

| IC50 (telomerase [1]) | Compound | other results |
| --- | --- | --- |
| 5 µM | N#Cc1ccc(C=O)nc1SCc1ccc(Cl)s1 [Compound IX] |  |
| 12.8 µM | N#Cc1ccc(C=O)nc1OCc1ccc(Cl)c(Cl)c1 [Compound XIII] |  |
| 15.1 µM | N#Cc1ccc(C=O)nc1SCC(=O)c1ccc(Cl)cc1 [Compound XII] |  |
| 5 µM | N#Cc1ccc(C=O)nc1SCc1ccc(CSc2nc(C=O)ccc2C#N)cc1 [Compound XIX] |  |
| 27 µM | N#Cc1ccc(C=O)nc1SCC(=O)c1ccc(Cl)cc1Cl [Compound XI] |  |
| 6 µM | N#Cc1ccc(C=O)nc1SCc1ccccc1CSc1nc(C=O)ccc1C#N [Compound XVIII] |  |
| < 3.2 µM | N#Cc1ccc(C=O)nc1SCc1cccc(CSc2nc(C=O)ccc2C#N)c1 [Compound XVII] |  |
| < 3.2 µM | Cc1cc(C)c(CSc2nc(C=O)ccc2C#N)c(C)c1CSc1nc(C=O)ccc1C#N [Compound XVI] |  |
| < 3.2 µM | Cc1cc(C)c(CSc2nc(C=O)ccc2C#N)cc1CSc1nc(C=O)ccc1C#N [Compound XV] |  |
| 7 µM | Cc1cc(CSc2nc(C=O)ccc2C#N)c(C)cc1CSc1nc(C=O)ccc1C#N [Compound XXIII] |  |
| 4 µM | Cc1c(C)c(CSc2nc(C=O)ccc2C#N)c(C)c(CSc2nc(C=O)ccc2C#N)c1C [Compound XXII] |  |
| < 3.2 µM | N#Cc1ccc(C=O)nc1SCc1ccccc1-c1ccccc1CSc1nc(C=O)ccc1C#N [Compound XXIV] |  |
| 7 µM | N#Cc1ccc(C=O)nc1SCc1c2ccccc2c(CSc2nc(C=O)ccc2C#N)c2ccccc12 [Compound XXIX] |  |
| < 3.2 µM | N#Cc1ccc(C=O)nc1SCc1cc(Cl)c(CSc2nc(C=O)ccc2C#N)cc1Cl [Compound XXI] |  |
| < 3.2 µM | N#Cc1ccc(C=O)nc1SCc1c(Cl)c(Cl)c(CSc2nc(C=O)ccc2C#N)c(Cl)c1Cl [Compound XXVIII] |  |
| < 3.2 µM | N#Cc1ccc(C=O)nc1SCc1cccc2cccc(CSc3nc(C=O)ccc3C#N)c12 [Compound XXVII] |  |

| IC50 (telomerase [1]) | Compound | other results |
| --- | --- | --- |
| 6 µM | N#Cc1ccc(C=O)nc1SCc1cc2ccccc2cc1CSc1nc(C=O)ccc1C#N [Compound XXVI] |  |
| < 3.2 µM | N#Cc1ccc(C=O)nc1SCc1cc(Br)ccc1-c1ccc(Br)cc1CSc1nc(C=O)ccc1C#N [Compound XXV] |  |
| 7 µM | N#Cc1ccc(C=O)nc1SCCCCSc1nc(C=O)ccc1C#N [Compound XXXIV] |  |
| < 3.2 µM | Cc1c(CSc2nc(C=O)ccc2C#N)c(C)c(CSc2nc(C=O)ccc2C#N)c(C)c1CSc1nc(C=O)ccc1C#N [Compound XXXI] |  |
| 5 µM | N#Cc1ccc(C=O)nc1SCC#CCSc1nc(C=O)ccc1C#N [Compound XXXVI] |  |
| 10 µM | N#Cc1ccc(C=O)nc1SCC=CCSc1nc(C=O)ccc1C#N [Compound XXXV] |  |
| 7 µM | N#Cc1ccc(C=O)nc1SCc1ccc2ccccc2c1CSc1nc(C=O)ccc1C#N [Compound XXX] |  |
| < 3.2 µM | Cc1c(C)c(C)c(CSc2nc(C=O)ccc2C#N)c(CSc2nc(C=O)ccc2C#N)c1C [Compound XX] |  |
| 10.9 µM | N#Cc1ccc(C=O)nc1SCC(=O)c1ccc(Cl)c(Cl)c1 [Compound X] |  |
| 9 µM | Cc1c(C)c(C)c(CSc2nc(C=O)ccc2C#N)c(C)c1C [III] |  |
| 18 µM | N#Cc1ccc(C=O)nc1SCc1ccc(C(F)(F)F)cc1 [IV] |  |
| 21 µM | CCc1c(CSc2nc(C=O)ccc2C#N)ccc2c1C(C)(C)CCC2(C)C [VIII] |  |
| 8 µM | CC1(C)CCC(C)(C)c2cc(CSc3nc(C=O)ccc3C#N)ccc21 [VII] |  |
| 7 µM | N#Cc1ccc(C=O)nc1SCc1c(Cl)cccc1Cl [VI] |  |
| < 3.2 µM | N#Cc1ccc(C=O)nc1SCc1cc(CSc2nc(C=O)ccc2C#N)c(CSc2nc(C=O)ccc2C#N)cc1CSc1nc(C=O)ccc1C#N [XXXIII] |  |
| < 3.2 µM | N#Cc1ccc(C=O)nc1SCc1ccc(CSc2nc(C=O)ccc2C#N)c(CSc2nc(C=O)ccc2C#N)c1CSc1nc(C=O)ccc1C#N [XXXII] |  |

| Compound | IC50 (telomerase [1]) | other results |
| --- | --- | --- |
| N#Cc1ccc(C=O)nc1SCc1ccc(Cl)c(Cl)c1 [Compound V] | 4.5 µM | lower specificity for Single-Stranded DNA Binding Protein (SSB) as compared to telomerase [2]: ≥ 5 fold; lower specificity for Terminal Transferase as compared to telomerase (Terminal Transferase): ≥ 5 fold; lower specificity for Topoisomerase II as compared to telomerase (Topoisomerase II [3]): ≥ 5 fold; induction of senescence earlier than DMSO control (IMR-90 cells): approximately 5 period doublings; Topoisomerase II-mediated DNA cleavage (linear DNA in agarose gel) (Topoisomerase II [4]; VP-16 as positive control): targeted Topoisomerase II; cleavable complex formation in Topoisomerase II, level of activity versus adriamycin and mitoxantrone (Topoisomerase II [4]; compared with adriamycin and mitoxantrone): greater than the well-known anti-tumor agents adriamycin and mitoxantrone; also recorded: stronger Topoisomerase II-targeting antitumor agent than the known Topoisomerase II-targeting agents adriamycin and mitoxantrone; inhibitory activity with respect to Topoisomerase II (Topoisomerase II [4]; qualitative statement): display inhibitory activity with respect to Topoisomerase II; also recorded: demonstrate inhibitory activity with respect to Topoisomerase II; Topoisomerase II activity relative to VP-16 (Topoisomerase II [4]; relative to VP-16): one fifth the activity of VP-16; effect on cells (SK-OV-3 cells): No effect; effect on cell growth (OVCAR-5 cells): small effect; tumor growth (OVCAR-5 tumor cells; 10 mg/(kg.day), intraperitoneal): not affected; increase in tumor weight (OVCAR-5 tumor cells; 25 mg/(kg.day), intraperitoneal): practically ceased after about 50 days; tumor mass over time (OVCAR-5 tumor cells; average, after increase for a period following initial dosing): began to level with continuing treatment; tumor growth as compared to vehicle (OVCAR-5 tumor cells; intraperitoneal, p<0.05, unpaired t-test): statistically significant slowing of tumor growth; specificity for telomerase (factor) (telomerase [5]): about 5; IC50 (OVCAR-5): 15 µM; IC50 (IMR-90): 5 µM; IC50 (SK-OV-3): 10 µM |
